Data from ChEMBL document CHEMBL1129276, “Synthesis of 2'-aminomethyl derivatives of N-(2-(phosphonomethoxy)ethyl) nucleotide analogues as potential antiviral agents” (1996).
Converted amounts (≈) assume the structure as drawn.

Columns and labels:
Format in all cases: functional
MT4 [1] = assay: Compound was tested in vitro for Minimum inhibitory concentration required to reduce VZV TK-(YS/R) induced cytopathicity in Human MT-4 cells
MT4 [2] = assay: Compound was tested in vitro for Minimum inhibitory concentration required to reduce CMV(Davis) induced cytopathicity in Human MT-4 cells
MT4 [3] = assay: Compound was tested in vitro for Minimum inhibitory concentration required to reduce VZV TK+(OKA) induced cytopathicity in Human MT-4 cells
MT4 [4] = assay: Compound was tested in vitro for Minimum inhibitory concentration required to reduce CMV(AD-169) induced cytopathicity in Human MT-4 cells
MT4 [5] = assay: Compound was tested in vitro for Minimum inhibitory concentration required to reduce VZV TK+(YS) induced cytopathicity in Human MT-4 cells
HEL [6] = assay: Compound was tested in vitro for Minimum inhibitory concentration required to reduce CMV(Davis) induced cytopathicity in HEL cells; details: Homo sapiens
HEL [7] = assay: Minimum inhibitory concentration required to reduce VZV TK-(07-1) induced cytopathicity in HEL cells; details: Homo sapiens
HEL [8] = assay: Compound was tested in vitro for Minimum inhibitory concentration required to reduce CMV(AD-169) induced cytopathicity in HEL cells; details: Homo sapiens
HEL [9] = assay: Compound was tested in vitro for Minimum inhibitory concentration required to reduce VZV TK+(YS) induced cytopathicity in HEL cells; details: Homo sapiens
HEL [10] = assay: Compound was tested in vitro for Minimum inhibitory concentration required to reduce VZV TK-(YS/R) induced cytopathicity in HEL cells; details: Homo sapiens
HEL [11] = assay: Compound was tested in vitro for Minimum inhibitory concentration required to reduce VZV TK+(OKA) induced cytopathicity in HEL cells; details: Homo sapiens
HEL [12] = assay: Compound was tested in vitro for Minimum inhibitory concentration required to reduce CMV (AD-169) induced cytopathicity in HEL cells; details: Homo sapiens
C3H/3T3 = assay: Compound was tested in vitro for Minimum inhibitory concentration required to reduce MSV induced cytopathicity in murine C3H/3T3 embryo fibroblasts; details: Mus musculus
E6SM = assay: Compound was tested in vitro for minimum inhibitory concentration required to reduce HSV-1(KOS) induced cytopathicity in E6SM cells; details: Homo sapiens
MT4 [13] = assay: Compound was tested in vitro for minimum inhibitory concentration required to reduce HSV-1(KOS) induced cytopathicity in Human MT-4 cells
MT4 [14] = assay: Compound was tested in vitro for Minimum inhibitory concentration required to reduce HSV-1(IIIb) induced cytopathicity in Human MT-4 cells
MT4 [15] = assay: Compound was tested in vitro for Minimum inhibitory concentration required to reduce HSV-1 TK-(B2006) induced cytopathicity in Human MT-4 cells
MT4 [16] = assay: Minimum inhibitory concentration required to reduce VZV TK-(07-1) induced cytopathicity in Human MT-4 cells
MT4 [17] = assay: Compound was tested in vitro for Minimum inhibitory concentration required to reduce HSV-2(ROD) induced cytopathicity in Human MT-4 cells
HEL [18] = assay: Compound was tested in vitro for Minimum inhibitory concentration required to reduce VZV TK-(07-1) induced cytopathicity in HEL cells; details: Homo sapiens

SMILES	MIC (MT4 [1]) [mg/L]	MIC (MT4 [2]) [mg/L]	MIC (MT4 [3]) [mg/L]	MIC (MT4 [4]) [mg/L]	MIC (MT4 [5]) [mg/L]	MIC (HEL [6]) [mg/L]	MIC (HEL [7]) [mg/L]	MIC (HEL [8]) [mg/L]	MIC (HEL [9]) [mg/L]	MIC (HEL [10]) [mg/L]	MIC (HEL [11]) [mg/L]	further results
NCC(Cn1cnc2c(N)ncnc21)OCP(=O)(O)O (stereo unspecified)	7 (≈ 23.2 µM)	35 (≈ 116 µM)	11 (≈ 36.4 µM)	15 (≈ 49.6 µM)	7 (≈ 23.2 µM)							
CN(C)CC(Cn1cnc2c(N)ncnc21)OCP(=O)(O)O (stereo unspecified)						> 20000	> 20000	> 20000	> 20000	> 20000	> 20000	
Nc1ncnc2c1ncn2CC(CNC(=O)c1ccccc1C(=O)O)OCP(=O)(O)O (stereo unspecified)						> 50000	> 50000	> 50000	> 50000	> 50000	> 50000	
C[N+](C)(C)CC(Cn1cnc2c(N)nc(N)nc21)OCP(=O)(O)O (stereo unspecified)									> 50000			MIC (HEL [12]): > 50000 mg/L
Nc1ncnc2c1ncn2CC(CN1CCOCC1)OCP(=O)(O)O (stereo unspecified)						> 50000	> 50000	> 50000	> 50000	> 50000	> 50000	MIC (C3H/3T3): 25000 mg/L (≈ 67100 µM); MIC (E6SM): 70000 mg/L (≈ 188000 µM)
Nc1nc(N)c2ncn(CC(CNC(=O)c3ccccc3C(=O)O)OCP(=O)(O)O)c2n1 (stereo unspecified)						> 50000	> 50000	> 50000	> 50000	> 50000	> 50000	
Nc1ncnc2c1ncn2C[C@@H](CO)OCP(=O)(O)O	0.01 (≈ 0.033 µM)	0.2 (≈ 0.66 µM)	0.03 (≈ 0.0989 µM)	0.15 (≈ 0.495 µM)	0.05 (≈ 0.165 µM)							MIC (MT4 [13]): 0.2 mg/L (≈ 0.66 µM); MIC (MT4 [14]): > 20 mg/L; MIC (MT4 [15]): 0.1 mg/L (≈ 0.33 µM); MIC (MT4 [16]): 0.04 mg/L (≈ 0.132 µM); MIC (MT4 [17]): > 20 mg/L
C[N+](C)(C)CC(Cn1cnc2c(O)nc(N)nc21)OCP(=O)(O)O (stereo unspecified)								> 50000	> 50000		> 50000	
C[N+](C)(C)CC(Cn1cnc2c(N)ncnc21)OCP(=O)(O)O (stereo unspecified)						> 50000		> 50000	> 50000		> 50000	MIC (HEL [18]): > 50000 mg/L
Nc1ncnc2c1ncn2CCOCP(=O)(O)O [ADEFOVIR]	14 (≈ 51.2 µM)	29 (≈ 106 µM)	25 (≈ 91.5 µM)	28 (≈ 102 µM)	31 (≈ 113 µM)							MIC (MT4 [13]): 7 mg/L (≈ 25.6 µM); MIC (MT4 [14]): 1.5 mg/L (≈ 5.49 µM); MIC (MT4 [15]): 20 mg/L (≈ 73.2 µM); MIC (MT4 [16]): 14 mg/L (≈ 51.2 µM); MIC (MT4 [17]): 1.5 mg/L (≈ 5.49 µM)
